The NIST ThermoML archive (doi:10.1007/s10765-006-0056-z)
± gives the expanded uncertainty stated by the source.

Experiment: molar heat capacity at constant volume; xn = mol fraction of the nth substance listed
Conditions: x1 = 0.095

CCCCCCCCCC [decane] + O=C=O
Conditions	molar heat capacity at constant volume [J/K/mol]
339.76 K, Fluid (supercritical or subcritical phases), Mass density=658.8 kg/m3, Isochoric Heat Capacity Apparatus	341.25 ± 6.8
339.76 K, Liquid, iso	405.37 ± 8.1
339.81 K, Fluid (supercritical or subcritical phases), Mass density=658.8 kg/m3, Isochoric Heat Capacity Apparatus	339.06 ± 6.8
340.21 K, Fluid (supercritical or subcritical phases), Mass density=658.8 kg/m3, Isochoric Heat Capacity Apparatus	339.7 ± 6.8
340.44 K, Fluid (supercritical or subcritical phases), Mass density=658.8 kg/m3, Isochoric Heat Capacity Apparatus	339.06 ± 6.8
341.36 K, Fluid (supercritical or subcritical phases), Mass density=658.8 kg/m3, Isochoric Heat Capacity Apparatus	337.04 ± 6.7
342.32 K, Fluid (supercritical or subcritical phases), Mass density=658.8 kg/m3, Isochoric Heat Capacity Apparatus	337.68 ± 6.8
348.73 K, Fluid (supercritical or subcritical phases), Mass density=658.8 kg/m3, Isochoric Heat Capacity Apparatus	325.41 ± 6.5
352.09 K, Fluid (supercritical or subcritical phases), Mass density=622.7 kg/m3, Isochoric Heat Capacity Apparatus	341.73 ± 6.8
352.09 K, Liquid, iso	393.1 ± 7.8
352.5 K, Fluid (supercritical or subcritical phases), Mass density=622.7 kg/m3, Isochoric Heat Capacity Apparatus	340.82 ± 6.8
352.9 K, Fluid (supercritical or subcritical phases), Mass density=622.7 kg/m3, Isochoric Heat Capacity Apparatus	339.06 ± 6.8
354.63 K, Fluid (supercritical or subcritical phases), Mass density=622.7 kg/m3, Isochoric Heat Capacity Apparatus	337.04 ± 6.7
362.18 K, Fluid (supercritical or subcritical phases), Mass density=658.8 kg/m3, Isochoric Heat Capacity Apparatus	313.14 ± 6.2
364 K, Fluid (supercritical or subcritical phases), Mass density=622.7 kg/m3, Isochoric Heat Capacity Apparatus	323.65 ± 6.5
368.53 K, Fluid (supercritical or subcritical phases), Mass density=574.1 kg/m3, Isochoric Heat Capacity Apparatus	365.42 ± 7.3
368.53 K, Liquid, iso	393.1 ± 7.8
368.83 K, Fluid (supercritical or subcritical phases), Mass density=574.1 kg/m3, Isochoric Heat Capacity Apparatus	364.08 ± 7.3
369.77 K, Fluid (supercritical or subcritical phases), Mass density=574.1 kg/m3, Isochoric Heat Capacity Apparatus	359.39 ± 7.2
371.23 K, Fluid (supercritical or subcritical phases), Mass density=658.8 kg/m3, Isochoric Heat Capacity Apparatus	303.75 ± 6.1
380.81 K, Fluid (supercritical or subcritical phases), Mass density=622.7 kg/m3, Isochoric Heat Capacity Apparatus	305.78 ± 6.1
383.81 K, Fluid (supercritical or subcritical phases), Mass density=534.8 kg/m3, Isochoric Heat Capacity Apparatus	350.91 ± 7
384.11 K, Fluid (supercritical or subcritical phases), Mass density=534.8 kg/m3, Isochoric Heat Capacity Apparatus	347.55 ± 6.9
385.02 K, Fluid (supercritical or subcritical phases), Mass density=574.1 kg/m3, Isochoric Heat Capacity Apparatus	318.95 ± 6.4
385.79 K, Fluid (supercritical or subcritical phases), Mass density=534.8 kg/m3, Isochoric Heat Capacity Apparatus	348.67 ± 7
387.65 K, Fluid (supercritical or subcritical phases), Mass density=534.8 kg/m3, Isochoric Heat Capacity Apparatus	339.49 ± 6.8
393.22 K, Fluid (supercritical or subcritical phases), Mass density=509.4 kg/m3, Isochoric Heat Capacity Apparatus	349.31 ± 7
393.66 K, Fluid (supercritical or subcritical phases), Mass density=622.7 kg/m3, Isochoric Heat Capacity Apparatus	307.11 ± 6.1
394.42 K, Fluid (supercritical or subcritical phases), Mass density=509.4 kg/m3, Isochoric Heat Capacity Apparatus	339.06 ± 6.8
395.94 K, Fluid (supercritical or subcritical phases), Mass density=509.4 kg/m3, Isochoric Heat Capacity Apparatus	340.82 ± 6.8
397.67 K, Fluid (supercritical or subcritical phases), Mass density=498 kg/m3, Isochoric Heat Capacity Apparatus	351.12 ± 7
397.78 K, Fluid (supercritical or subcritical phases), Mass density=574.1 kg/m3, Isochoric Heat Capacity Apparatus	312.23 ± 6.2
398.32 K, Fluid (supercritical or subcritical phases), Mass density=498 kg/m3, Isochoric Heat Capacity Apparatus	353.09 ± 7
399.4 K, Fluid (supercritical or subcritical phases), Mass density=498 kg/m3, Isochoric Heat Capacity Apparatus	343.97 ± 6.9
401.33 K, Fluid (supercritical or subcritical phases), Mass density=534.8 kg/m3, Isochoric Heat Capacity Apparatus	323.65 ± 6.5
403.37 K, Fluid (supercritical or subcritical phases), Mass density=574.1 kg/m3, Isochoric Heat Capacity Apparatus	314.26 ± 6.3
404.76 K, Fluid (supercritical or subcritical phases), Mass density=509.4 kg/m3, Isochoric Heat Capacity Apparatus	325.19 ± 6.5
404.98 K, Fluid (supercritical or subcritical phases), Mass density=477.6 kg/m3, Isochoric Heat Capacity Apparatus	347.33 ± 6.9
405.41 K, Fluid (supercritical or subcritical phases), Mass density=477.6 kg/m3, Isochoric Heat Capacity Apparatus	344.18 ± 6.9
406.9 K, Fluid (supercritical or subcritical phases), Mass density=534.8 kg/m3, Isochoric Heat Capacity Apparatus	319.59 ± 6.4
407.33 K, Fluid (supercritical or subcritical phases), Mass density=477.6 kg/m3, Isochoric Heat Capacity Apparatus	339.28 ± 6.8
410.31 K, Fluid (supercritical or subcritical phases), Mass density=509.4 kg/m3, Isochoric Heat Capacity Apparatus	327.43 ± 6.6
410.94 K, Fluid (supercritical or subcritical phases), Mass density=498 kg/m3, Isochoric Heat Capacity Apparatus	327.01 ± 6.6
411.47 K, Fluid (supercritical or subcritical phases), Mass density=574.1 kg/m3, Isochoric Heat Capacity Apparatus	311.32 ± 6.2
416.01 K, Fluid (supercritical or subcritical phases), Mass density=477.6 kg/m3, Isochoric Heat Capacity Apparatus	330.31 ± 6.6
416.64 K, Fluid (supercritical or subcritical phases), Mass density=509.4 kg/m3, Isochoric Heat Capacity Apparatus	321.62 ± 6.5
422.51 K, Fluid (supercritical or subcritical phases), Mass density=498 kg/m3, Isochoric Heat Capacity Apparatus	321.62 ± 6.5
423.55 K, Fluid (supercritical or subcritical phases), Mass density=509.4 kg/m3, Isochoric Heat Capacity Apparatus	319.59 ± 6.4
428.94 K, Fluid (supercritical or subcritical phases), Mass density=477.6 kg/m3, Isochoric Heat Capacity Apparatus	321.41 ± 6.5
432.24 K, Fluid (supercritical or subcritical phases), Mass density=509.4 kg/m3, Isochoric Heat Capacity Apparatus	320.07 ± 6.4
434.61 K, Fluid (supercritical or subcritical phases), Mass density=398.3 kg/m3, Isochoric Heat Capacity Apparatus	344.61 ± 6.9
434.91 K, Fluid (supercritical or subcritical phases), Mass density=398.3 kg/m3, Isochoric Heat Capacity Apparatus	342.64 ± 6.8
436.96 K, Fluid (supercritical or subcritical phases), Mass density=398.3 kg/m3, Isochoric Heat Capacity Apparatus	343.06 ± 6.9
437.68 K, Fluid (supercritical or subcritical phases), Mass density=498 kg/m3, Isochoric Heat Capacity Apparatus	321.19 ± 6.4
438.19 K, Fluid (supercritical or subcritical phases), Mass density=509.4 kg/m3, Isochoric Heat Capacity Apparatus	318.05 ± 6.3
440.43 K, Fluid (supercritical or subcritical phases), Mass density=534.8 kg/m3, Isochoric Heat Capacity Apparatus	316.28 ± 6.3
442.03 K, Fluid (supercritical or subcritical phases), Mass density=534.8 kg/m3, Isochoric Heat Capacity Apparatus	316.5 ± 6.3
442.05 K, Fluid (supercritical or subcritical phases), Mass density=498 kg/m3, Isochoric Heat Capacity Apparatus	321.19 ± 6.4
442.66 K, Fluid (supercritical or subcritical phases), Mass density=477.6 kg/m3, Isochoric Heat Capacity Apparatus	322.31 ± 6.5
442.88 K, Fluid (supercritical or subcritical phases), Mass density=498 kg/m3, Isochoric Heat Capacity Apparatus	321.19 ± 6.4
